Experimental data published in US12157885B2, “Methods of screening using barcoded libraries” (President and Fellows of Harvard College, priority 2016, dated 2024).

Test system: library of barcoded yeast strains expressing toxic aggregation prone proteins, non-aggregation toxic proteins or benign control proteins
Experiment: Barcoded mixed pool growth competition of a yeast library under inducing conditions (galactose) with or without a small molecule, with barcodes quantified by next-generation sequencing
Format: cell-based
Settings: for rescue of growth of strains expressing toxic aggregation prone proteins (barcode representation relative to no drug condition): difference >3 standard deviations vs no drug highlighted
Method: Several experiments were conducted in which all members of the library were mixed at equal amounts and the library was grown under non-inducing conditions (glucose) or in the presence of galactose (inducing condition) with or without a small molecule of interest. After overnight outgrowth, genomic DNA was extracted from each of the experimental conditions and barcodes were quantified.
A library of barcoded yeast and their associated genes of interest were subjected to growth under inducing conditions in the presence or absence of small molecules. In FIG. 5A, Lovastatin at 2 ug/ml was added to the outgrowth media. In FIG. 5B, Celestrol at 1 ug/ml was added to the outgrowth media. Growth in the presence of drug was normalized to the without drug condition and plotted relative to the no drug condition. […] “416” and “426” refers to the plasmid background used to express each of the genes tested.
For growth competition experiments, yeast strains each with a unique DNA barcode along with containing a plasmid encoding a control or toxic protein of interest were first grown overnight to saturation in SC-URA+glucose. The various barcoded lines were then mixed in defined ratios and passaged at a 1:1000 dilution into fresh SC-URA+glucose or SC-URA+galactose media. For experiments involving small molecules, yeast were diluted into SC-URA+galactose media containing a given small molecule of interest and allowed to grow for 36 hours before genomic DNA was extracted from the population of cells.
Yeast lysis was performed as previously described. See Lõoke, M., Kristjuhan, K. & Kristjuhan, A. Extraction of genomic DNA from yeasts for PCR-based applications. BioTechniques 50, 325-328 (2011). Briefly, 300-900 ul of overnight culture was spun down and resuspended in 300 ul of 200 mM LiAc, 1% SDS solution. Cells were then vortexed several times and incubated at 70° C. for 10-15 minutes. 900 ul of >95% ethanol was then added to the samples and they were inverted several times along with vortexing to mix the solution well. The samples were then spun at 15,000 g for 3 minutes and the supernatant was discarded. Pellets were washed 1× with 70% ethanol, spun at 15,000 g for 3 minutes and the supernatant was again removed. The pellet was then allowed to air dry for 5-10 minutes before adding in 100 ul of 10 mM Tris pH 8.5 and pipetting up and down to break up the pellet. Samples were then placed in a heating block set to 37° C. for 10 minutes, spun again at 15,000 g for 3 minutes and then the supernatant was collected and used in downstream DNA analysis.
Genomic DNA was extracted and barcoded using one of four internally barcoded forward primers, […] NNNN CACAG […]; […] NNNN GTGTT […]; […] NNNN TCTTG […]; […] NNNN AGCTC […]; in combination with the reverse primer, […]aacgccgccatccagtttaaacgag. Following PCR, the amplicons were purified and normalized using SequalPrep Normalization Plate (96) kit (Thermo Fisher). A second round of PCR was next performed using the Illumina Truseq adapters in order to allow individual samples to be identified during subsequent data analysis. The reads were aligned to a list of the 96 possible barcodes (see Ho, C. H. et al. A molecular barcoded yeast ORF library enables mode-of-action analysis of bioactive compounds. Nat. Biotechnol. 27, 369-377 (2009) using BWA. The depth of coverage for each barcode was calculated for each of the samples using a custom script and normalized to the total number of reads per sample.

## CC1=C(O)C(=O)C=C2C1=CC=C1[C@@]2(C)CC[C@@]2(C)[C@@H]3C[C@](C)(C(=O)O)CC[C@]3(C)CC[C@]12C [Celestrol]
Celestrol at 1 ug/ml in outgrowth media, FIG. 5B
  rescue of growth of strains expressing toxic aggregation prone proteins (barcode representation relative to no drug condition): showed an ability to rescue the growth of some of the toxic aggregation prone proteins
Celestrol at 1 ug/ml, FIG. 5B
  change in growth of control strains expressing benign proteins (eYFP, mCherry): nor did control strains expressing benign proteins such as eYFP and mCherry exhibit a significant change in their growth
  rescue of strains expressing proteins that cause toxicity in yeast outside of protein aggregation: none of the proteins that cause toxicity in yeast through alternative methods outside of protein aggregation showed significant rescue

## CC[C@H](C)C(=O)O[C@H]1C[C@@H](C)C=C2C=C[C@H](C)[C@H](CC[C@@H]3C[C@@H](O)CC(=O)O3)[C@H]21 [Lovastatin]
Lovastatin at 2 ug/ml in outgrowth media, FIG. 5A
  rescue of growth of strains expressing toxic aggregation prone proteins (barcode representation relative to no drug condition): showed an ability to rescue the growth of some of the toxic aggregation prone proteins
Lovastatin at 2 ug/ml, FIG. 5A
  change in growth of control strains expressing benign proteins (eYFP, mCherry): nor did control strains expressing benign proteins such as eYFP and mCherry exhibit a significant change in their growth
  rescue of strains expressing proteins that cause toxicity in yeast outside of protein aggregation: none of the proteins that cause toxicity in yeast through alternative methods outside of protein aggregation showed significant rescue
